# Measurements published in patent US20210213104A1, “GLUCAGON AND GLP-1 CO-AGONISTS FOR THE TREATMENT OF CHRONIC KIDNEY DISEASE AND DIABETIC KIDNEY DISEASE IN TYPE 2 DIABETES” (MEDIMMUNE LIMITED, priority 2020, published 2021).
# Marks after values point to notes of the source that are not given here.
# System: subjects with T2DM and renal impairment
# Assay: Phase 2a: continuous glucose monitoring (CGM)
# Format: in vivo, human
# Conditions: for Percentage of Time CGM Glucose Within Target Range (70-180 mg/dL), Mean / Percentage of Time CGM Glucose Within Target Range (70-180 mg/dL), Median / Time in target range, Change from Baseline (Days −8 to −2), Mean / Time in target range, Change from Baseline (Days −8 to −2), Median / Time in target range, Difference in LS Mean Change (vs Placebo): 300 μg Dose (Days 26 to 32); for Percentage of Time CGM Glucose Within Target Range (70-180 mg/dL), Mean / Percentage of Time CGM Glucose Within Target Range (70-180 mg/dL), Median / Time in target range, Change from Baseline (Days −8 to −2), Mean / Time in target range, Change from Baseline (Days −8 to −2), Median / Time in target range, Difference in LS Mean Change (vs Placebo) / Percentage of time spent in CGM glucose range 70-180 mg/dL during treatment / Percentage of time spent in CGM glucose range >180 mg/dL during treatment: ITT; for Percentage of time spent in CGM glucose range 70-180 mg/dL during treatment / Percentage of time spent in CGM glucose range >180 mg/dL during treatment: entire dosing period
# Experimental: Cotadutide was titrated from 50 μg up to 300 μg and administered once daily by subcutaneous (SC) injection over 32 days.
# Cotadutide was administered at 50 μg once daily for 4 days, followed by 100 μg daily for 7 days, 200 μg daily for 7 days, and 300 μg daily for 14 days (n=20). Placebo was administered one daily for 32 days (n=20). Cotadutide and placebo were administered in the morning. Dosing commenced following predose baseline vital signs, blood tests (including HbA1c), an electrocardiogram (ECG), body weight measurement, and bioimpedance spectroscopy (BIS). Subjects then returned for daily dosing or remained overnight locally until Day 5, and thereafter, had visits at weekly intervals until a maintenance dose of 300 μg was established. Thus, Cotadutide or placebo was administered at the study site by study personal for the first four doses and on site on Days 5, 12, 19, and 32. At all other times, subjects preformed dosing at home.
# A Freestyle Libre® Pro CGM device was used to measure interstitial glucose levels. […] Data generated by CGM was used at visits to adjust insulin doses and other treatments.
# The CGM sensor, which is a small plastic circular device of 35 mm diameter and 5 mm depth, was applied to the back of the upper arm. Subjects wore the CGM sensor continuously up until the time of a sensor change, which was to occur within 14 days, and they were advised that they could bathe and shower, and swim in up to 3 m depth for up to 30 minutes while wearing the CGM sensor. When the CGM sensor was removed, a new CGM sensor could be reapplied, ideally close to the original site, but with the subject's site preference taken into account. CGM sensors were single-use only.
# If a subject was unable to tolerate wearing the CGM sensor for the entire duration of the study, the sensor was removed; but the subject was to remain in the study with or without continued CGM and could instead be instructed to monitor capillary plasma glucose measurements four times per day (before meals and before bedtime) and record these levels in the diary provided.
# Subjects underwent continuous glucose monitoring (CGM) starting from Day −14 to Day 40 (±5 days), with sensor changes within 14-day intervals. CGM readings were used to analyze change in average CGM glucose and glucose AUC7 d, coefficient of variation as a marker of glycemic variability, and time spent in target glucose range and hypoglycemia, to enable comparison across different dose levels.
smiles,measurement,setting,value
CCCCCCCCCCCCCCCC(=O)N[C@@H](CCC(=O)NCCCC[C@H](NC(=O)[C@H](CC(=O)O)NC(=O)[C@H](CO)NC(=O)[C@@H](NC(=O)[C@H](Cc1ccccc1)NC(=O)[C@@H](NC(=O)CNC(=O)[C@H](CCC(N)=O)NC(=O)[C@H](CO)NC(=O)[C@@H](N)Cc1c[nH]cn1)[C@@H](C)O)[C@@H](C)O)C(=O)N[C@@H](CO)C(=O)N[C@@H](CCC(=O)O)C(=O)N[C@@H](Cc1ccc(O)cc1)C(=O)N[C@@H](CC(C)C)C(=O)N[C@@H](CC(=O)O)C(=O)N[C@@H](CO)C(=O)N[C@@H](CCC(=O)O)C(=O)N[C@@H](CCCNC(=N)N)C(=O)N[C@@H](C)C(=O)N[C@@H](CCCNC(=N)N)C(=O)N[C@@H](CC(=O)O)C(=O)N[C@@H](Cc1ccccc1)C(=O)N[C@H](C(=O)N[C@@H](C)C(=O)N[C@@H](Cc1c[nH]c2ccccc12)C(=O)N[C@@H](CC(C)C)C(=O)N[C@@H](CCC(=O)O)C(=O)N[C@@H](C)C(=O)NCC(=O)NCC(=O)O)C(C)C)C(=O)O [Cotadutide],"Percentage of Time CGM Glucose Within Target Range (70-180 mg/dL), Mean",Insulin Dose < 20 U/day,89.31%
same,"Percentage of Time CGM Glucose Within Target Range (70-180 mg/dL), Median",Insulin Dose < 20 U/day,95.35%
same,"Time in target range, Change from Baseline (Days −8 to −2), Mean",Insulin Dose < 20 U/day,25.61%
same,"Time in target range, Change from Baseline (Days −8 to −2), Median",Insulin Dose < 20 U/day,23.18%
same,"Time in target range, Difference in LS Mean Change (vs Placebo)",Insulin Dose < 20 U/day,56.7%
same,"Time in target range, Difference in LS Mean Change (vs Placebo)","Insulin Dose < 20 U/day, listed as MEDI0382",56.73%
same,"Percentage of Time CGM Glucose Within Target Range (70-180 mg/dL), Mean",Insulin Dose ≥ 20 U/day,71.69%
same,"Percentage of Time CGM Glucose Within Target Range (70-180 mg/dL), Median",Insulin Dose ≥ 20 U/day,83.04%
same,"Time in target range, Change from Baseline (Days −8 to −2), Mean",Insulin Dose ≥ 20 U/day,8.44%
same,"Time in target range, Change from Baseline (Days −8 to −2), Median",Insulin Dose ≥ 20 U/day,13.31%
same,"Time in target range, Difference in LS Mean Change (vs Placebo)",Insulin Dose ≥ 20 U/day,19.6%
same,"Time in target range, Difference in LS Mean Change (vs Placebo)","Insulin Dose ≥ 20 U/day, listed as MEDI0382",19.59%
same,"Percentage of Time CGM Glucose Within Target Range (70-180 mg/dL), Mean",Total,78.18%
same,"Percentage of Time CGM Glucose Within Target Range (70-180 mg/dL), Median",Total,83.51%
same,"Time in target range, Change from Baseline (Days −8 to −2), Mean",Total,14.50%
same,"Time in target range, Change from Baseline (Days −8 to −2), Median",Total,18.31%
same,"Time in target range, Difference in LS Mean Change (vs Placebo)",Total,36.02%
same,"Time in target range, difference in LS mean change as compared to placebo","300 μg [Days 19 to 25], all subjects",35.23%
same,mean CGM glucose value,at the 50 μg dose,133.7 mg/dL
same,mean CGM glucose value,at the 100 μg dose,127.6 mg/dL
same,mean CGM glucose value,at the 200 μg dose,131.7 mg/dL
same,mean CGM glucose value,at the 300 μg dose (Days 26 to 32),125.4 mg/dL
same,Total glucose over each dosing period (AUC7 d) from baseline (Days −8 to −2) as compared to placebo,based on LS mean change,significantly decreased
same,LS mean change in coefficient of variation of glucose vs placebo,baseline to the end of each 7-day dosing period,no statistically significant difference
same,Percentage of time spent in CGM glucose range 70-180 mg/dL during treatment,Insulin Dose < 20 U/day,89.85* %
same,Percentage of time spent in CGM glucose range >180 mg/dL during treatment,Insulin Dose < 20 U/day,3.31%
same,Percentage of time spent in CGM glucose range 70-180 mg/dL during treatment,Insulin Dose ≥ 20 U/day,73.09* %
same,Percentage of time spent in CGM glucose range >180 mg/dL during treatment,Insulin Dose ≥ 20 U/day,14.09* %
same,Percentage of time spent in CGM glucose range 70-180 mg/dL during treatment,Total,78.67%
same,Percentage of time spent in CGM glucose range >180 mg/dL during treatment,Total,10.50%
same,Percentage of time spent in CGM glucose range 70-180 mg/dL during treatment,"Total, listed as MEDI0382",78.67* %
same,Percentage of time spent in CGM glucose range >180 mg/dL during treatment,"Total, listed as MEDI0382",10.50* %
same,percentage of time spent below 54 mg/dL vs Placebo,in vivo,statistically significant greater percentage of time
same,percentage of time spent below 54 mg/dL vs placebo,in vivo,no clinically significant difference vs placebo
same,"time spent in hypoglycemia (<70 mg/dL) vs placebo, 7-day periods",in vivo,no statistically significant differences
same,Average glucose levels from baseline to the end of each 7-day dosing period compared to placebo,"p ≤0.003, based on LS mean change",significant reductions
